According to patent publication US10081628B2, “Apoptosis-inducing agents for the treatment of cancer and immune and autoimmune diseases” (AbbVie Inc., priority 2013, dated 2018):
Read-outs that look alike come from different tables or passages of the source.

How the values were obtained:
GST-Bcl-2 = GST-Bcl-2 (Homo sapiens, UniProt P10415); assay: TR-FRET Bcl-2 binding assay (F-Bak peptide probe); conditions: GST-Bcl-2 1 nM, F-Bak peptide probe 100 nM, Tb-anti-GST 1 nM; Wang's equation; '<' = below limit of detection
Summary of the method: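 Competitive TR-FRET displacement of F-Bak peptide probe from GST-Bcl-2 detected with Tb-anti-GST antibody; compounds serially diluted in DMSO from 50 μM (2× starting concentration). Mixtures incubated 3 h at room temperature, read at 340 nm excitation with 520 and 495 nm emission. Ki derived by Wang's equation.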

RS4;11 cells = assay: RS4;11 cell viability assay (CellTiter Glo); format: cell-based; conditions: 10% human serum, 48 hours
Summary of the method: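 Cells seeded at 50,000 per well and exposed to compounds for 48 h at 37 C, 5% CO2 in the presence of 10% human serum. Viability read by CellTiter Glo; EC50 derived from percentage of viable cells versus untreated controls.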

lymphocytes = assay: Lymphocyte reduction in C57BL/6 mice; format: in vivo; conditions: Mus musculus, ip
Method: An experiment was performed to evaluate the effect of Bcl-2 selective/Bcl-xL sparing compounds on immune cells and platelets, as evaluated in C57Bl/6 mice. Mice were treated four days with compounds (doses of 30 mg/kg, administered by intraperitoneal injection every day) and cell numbers were measured with a Cell Dyn hematology analyzer 24 hours after the first and last doses. Exposure of the compound (area under the curve) was calculated by using time points of 1, 6, 10 and 24 hours after the last dose.

[1] = 30 mg/kg intraperitoneal every day for four days, 24 hours after the last dose, read-out: Lymphocyte reduction % inh. day 4
[2] = 30 mg/kg intraperitoneal every day, 24 hours after the first dose, read-out: Lymphocyte reduction % inh. day 1

Chain of GST-Bcl-2 (P10415 whole entry): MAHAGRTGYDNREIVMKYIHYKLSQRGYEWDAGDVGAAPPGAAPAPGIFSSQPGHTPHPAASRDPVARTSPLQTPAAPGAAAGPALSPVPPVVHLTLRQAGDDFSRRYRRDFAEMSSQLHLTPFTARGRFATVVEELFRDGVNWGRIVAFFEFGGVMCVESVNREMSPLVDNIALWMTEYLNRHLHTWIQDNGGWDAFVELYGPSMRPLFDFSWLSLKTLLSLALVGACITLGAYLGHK

Row | Structure (SMILES) | Ki (GST-Bcl-2) | EC50 (RS4;11 cells) | inhibition at 30 mg/kg (lymphocytes; [1]) | inhibition at 30 mg/kg (lymphocytes; [2])
1 | CC1(C)CCC(CN2CCN(c3ccc(C(=O)NS(=O)(=O)c4ccc(NC[C@H]5CCCOCC5)c([N+](=O)[O-])c4)c(Oc4cnc5[nH]ccc5c4)c3)CC2)=C(c2ccc(Cl)cc2)C1 [Example 20, 4-(4-{[2-(4-chlorophenyl)-4,4-dimethylcyclohex-1-en-1-yl]methyl}piperazin-1-yl)-N-[(3-nitro-4-{[(4S)-oxepan-4-ylmethyl]amino}phenyl)sulfonyl]-2-(1H-pyrrolo[2,3-b]pyridin-5-yloxy)benzamide] | < 0.0001 µM | 0.019 µM | 57% | 20%
2 | CC1(C)CCC(CN2CCN(c3ccc(C(=O)NS(=O)(=O)c4ccc(NCC5(C)CCOCC5)c([N+](=O)[O-])c4)c(Oc4cnc5[nH]ccc5c4)c3)CC2)=C(c2ccc(Cl)cc2)C1 [Example 21, 4-(4-{[2-(4-chlorophenyl)-4,4-dimethylcyclohex-1-en-1-yl]methyl}piperazin-1-yl)-N-[(4-{[(4-methyltetrahydro-2H-pyran-4-yl)methyl]amino}-3-nitrophenyl)sulfonyl]-2-(1H-pyrrolo[2,3-b]pyridin-5-yloxy)benzamide] | < 0.0001 µM | 0.019 µM | 61% | 61%
3 | CC1(C)CCC(CN2CCN(c3ccc(C(=O)NS(=O)(=O)c4ccc(NCC5CCSCC5)c([N+](=O)[O-])c4)c(Oc4cnc5[nH]ccc5c4)c3)CC2)=C(c2ccc(Cl)cc2)C1 [Example 22, 4-(4-{[2-(4-chlorophenyl)-4,4-dimethylcyclohex-1-en-1-yl]methyl}piperazin-1-yl)-N-({3-nitro-4-[(tetrahydro-2H-thiopyran-4-ylmethyl)amino]phenyl}sulfonyl)-2-(1H-pyrrolo[2,3-b]pyridin-5-yloxy)benzamide] | < 0.0001 µM | 0.028 µM | 44% | 40%
4 | CC1(C)CCC(CN2CCN(c3ccc(C(=O)NS(=O)(=O)c4ccc(NCC5COC5)c([N+](=O)[O-])c4)c(Oc4cnc5[nH]ccc5c4)c3)CC2)=C(c2ccc(Cl)cc2)C1 [Example 23, 4-(4-{[2-(4-chlorophenyl)-4,4-dimethylcyclohex-1-en-1-yl]methyl}piperazin-1-yl)-N-({3-nitro-4-[(oxetan-3-ylmethyl)amino]phenyl}sulfonyl)-2-(1H-pyrrolo[2,3-b]pyridin-5-yloxy)benzamide] | < 0.0001 µM | 0.023 µM | 15% | 37%
5 | C[C@@H]1CO[C@H](CNc2ccc(S(=O)(=O)NC(=O)c3ccc(N4CCN(CC5=C(c6ccc(Cl)cc6)CC(C)(C)CC5)CC4)cc3Oc3cnc4[nH]ccc4c3)cc2[N+](=O)[O-])CO1 [Example 24, 4-(4-{[2-(4-chlorophenyl)-4,4-dimethylcyclohex-1-en-1-yl]methyl}piperazin-1-yl)-N-{[4-({[(2R,5R)-5-methyl-1,4-dioxan-2-yl]methyl}amino)-3-nitrophenyl]sulfonyl}-2-(1H-pyrrolo[2,3-b]pyridin-5-yloxy)benzamide] | < 0.0001 µM | 0.014 µM | 58% | 48%
6 | CC1(C)CCC(CN2CCN(c3ccc(C(=O)NS(=O)(=O)c4ccc(NCC5(O)COCCOC5)c([N+](=O)[O-])c4)c(Oc4cnc5[nH]ccc5c4)c3)CC2)=C(c2ccc(Cl)cc2)C1 [Example 25, 4-(4-{[2-(4-chlorophenyl)-4,4-dimethylcyclohex-1-en-1-yl]methyl}piperazin-1-yl)-N-[(4-{[(6-hydroxy-1,4-dioxepan-6-yl)methyl]amino}-3-nitrophenyl)sulfonyl]-2-(1H-pyrrolo[2,3-b]pyridin-5-yloxy)benzamide] | < 0.0001 µM | 0.036 µM | 15% | 29%
7 | CC1(C)CCC(CN2CCN(c3ccc(C(=O)NS(=O)(=O)c4ccc(NCC5(O)CCC(F)(F)CC5)c([N+](=O)[O-])c4)c(Oc4cnc5[nH]ccc5c4)c3)CC2)=C(c2ccc(Cl)cc2)C1 [Example 26, 4-(4-{[2-(4-chlorophenyl)-4,4-dimethylcyclohex-1-en-1-yl]methyl}piperazin-1-yl)-N-[(4-{[(4,4-difluoro-1-hydroxycyclohexyl)methyl]amino}-3-nitrophenyl)sulfonyl]-2-(1H-pyrrolo[2,3-b]pyridin-5-yloxy)benzamide] | < 0.0001 µM | 0.044 µM | 23% | 38%
8 | COC1(CNc2ccc(S(=O)(=O)NC(=O)c3ccc(N4CCN(CC5=C(c6ccc(Cl)cc6)CC(C)(C)CC5)CC4)cc3Oc3cnc4[nH]ccc4c3)cc2[N+](=O)[O-])CCOCC1 [Example 27, 4-(4-{[2-(4-chlorophenyl)-4,4-dimethylcyclohex-1-en-1-yl]methyl}piperazin-1-yl)-N-[(4-{[(4-methoxytetrahydro-2H-pyran-4-yl)methyl]amino}-3-nitrophenyl)sulfonyl]-2-(1H-pyrrolo[2,3-b]pyridin-5-yloxy)benzamide] | < 0.0001 µM | 0.097 µM | 21% | 23%
9 | C[C@@H]1C[C@H](CNc2ccc(S(=O)(=O)NC(=O)c3ccc(N4CCN(CC5=C(c6ccc(Cl)cc6)CC(C)(C)CC5)CC4)cc3Oc3cnc4[nH]ccc4c3)cc2[N+](=O)[O-])C[C@H](C)O1 [Example 31, 4-(4-{[2-(4-chlorophenyl)-4,4-dimethylcyclohex-1-en-1-yl]methyl}piperazin-1-yl)-N-{[4-({[(2R,4R,6S)-2,6-dimethyltetrahydro-2H-pyran-4-yl]methyl}amino)-3-nitrophenyl]sulfonyl}-2-(1H-pyrrolo[2,3-b]pyridin-5-yloxy)benzamide] | < 0.0001 µM | 0.016 µM | 55% | 53%
10 | CC1(C)CCC(CN2CCN(c3ccc(C(=O)NS(=O)(=O)c4ccc(NC[C@@H]5CCOC(C)(C)C5)c([N+](=O)[O-])c4)c(Oc4cnc5[nH]ccc5c4)c3)CC2)=C(c2ccc(Cl)cc2)C1 [Example 34, 4-(4-{[2-(4-chlorophenyl)-4,4-dimethylcyclohex-1-en-1-yl]methyl}piperazin-1-yl)-N-{[4-({[(4R)-2,2-dimethyltetrahydro-2H-pyran-4-yl]methyl}amino)-3-nitrophenyl]sulfonyl}-2-(1H-pyrrolo[2,3-b]pyridin-5-yloxy)benzamide] | < 0.0001 µM | 0.013 µM | 61% | < 15%
11 | C[C@@H]1COC[C@H](CNc2ccc(S(=O)(=O)NC(=O)c3ccc(N4CCN(CC5=C(c6ccc(Cl)cc6)CC(C)(C)CC5)CC4)cc3Oc3cnc4[nH]ccc4c3)cc2[N+](=O)[O-])O1 [Example 35, 4-(4-{[2-(4-chlorophenyl)-4,4-dimethylcyclohex-1-en-1-yl]methyl}piperazin-1-yl)-N-{[4-({[(2S,6R)-6-methyl-1,4-dioxan-2-yl]methyl}amino)-3-nitrophenyl]sulfonyl}-2-(1H-pyrrolo[2,3-b]pyridin-5-yloxy)benzamide] | < 0.0001 µM | 0.012 µM | 49% | 54%
12 | CC1(C)CCC(CN2CCN(c3ccc(C(=O)NS(=O)(=O)c4ccc(NC[C@@H]5CCOC5)c([N+](=O)[O-])c4)c(Oc4cnc5[nH]ccc5c4)c3)CC2)=C(c2ccc(Cl)cc2)C1 [Example 36, 4-(4-{[2-(4-chlorophenyl)-4,4-dimethylcyclohex-1-en-1-yl]methyl}piperazin-1-yl)-N-[(3-nitro-4-{[(3 S)-tetrahydrofuran-3-ylmethyl]amino}phenyl)sulfonyl]-2-(1H-pyrrolo[2,3-b]pyridin-5-yloxy)benzamide] | < 0.0001 µM | 0.032 µM | 42% | 47%
13 | CC1(C)CCC(CN2CCN(c3ccc(C(=O)NS(=O)(=O)c4ccc(NC[C@H]5COCC(C)(C)O5)c([N+](=O)[O-])c4)c(Oc4cnc5[nH]ccc5c4)c3)CC2)=C(c2ccc(Cl)cc2)C1 [Example 37, 4-(4-{[2-(4-chlorophenyl)-4,4-dimethylcyclohex-1-en-1-yl]methyl}piperazin-1-yl)-N-{[4-({[(2S)-6,6-dimethyl-1,4-dioxan-2-yl]methyl}amino)-3-nitrophenyl]sulfonyl}-2-(1H-pyrrolo[2,3-b]pyridin-5-yloxy)benzamide] | < 0.0001 µM | 0.25 µM | 22% | 28%
14 | C[C@@H]1CO[C@@H](CNc2ccc(S(=O)(=O)NC(=O)c3ccc(N4CCN(CC5=C(c6ccc(Cl)cc6)CC(C)(C)CC5)CC4)cc3Oc3cnc4[nH]ccc4c3)cc2[N+](=O)[O-])CO1 [Example 44, 4-(4-{[2-(4-chlorophenyl)-4,4-dimethylcyclohex-1-en-1-yl]methyl}piperazin-1-yl)-N-{[4-({[(2S,5R)-5-methyl-1,4-dioxan-2-yl]methyl}amino)-3-nitrophenyl]sulfonyl}-2-(1H-pyrrolo[2,3-b]pyridin-5-yloxy)benzamide] | < 0.0001 µM | 0.0047 µM | 60% | 66%
